Assays:
[1] = Measurement of Liposomal pKa of LNP (TNS fluorescence); type: physicochemical; conditions: LNP without nucleic acid, cationic lipid:DOPC:Chol=52.5:7.5:40 + about 1.5 mol DMG-PEG2k; pH at which relative TNS fluorescence intensity was 50%
How it was run: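 Nucleic-acid-free LNPs (cationic lipid:DOPC:Chol 52.5:7.5:40, ~1.5 mol DMG-PEG2k) prepared by microfluidic mixing, diluted to 0.5 mM lipid, mixed with TNS in 150 mM NaCl buffers spanning pH 3.0–10.0. Fluorescence at ex 321/em 447 nm normalised 0–100% per LNP; pKa is the pH at 50%.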

[2] = Particle size, PdI and zeta potential of mRNA-encapsulating LNPs (dynamic light scattering); type: physicochemical; conditions: mRNA-encapsulating LNP, cationic lipid:DOPC:Chol=55:5:40 + about 1 mol DMG-PEG2k; for PdI / particle size: dynamic light scattering; for zeta potential: physiological pH
How it was run: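 LNPs were made from cationic lipid:DOPC:Chol at 55:5:40 molar ratio plus about 1 mol DMG-PEG2k, microfluidically mixed with mRNA in malate buffer (20 mM, pH 3.0, 30 mM NaCl). They were ultrafiltered into PBS at 2 mM lipid. Size, PdI and zeta potential were measured by dynamic light scattering.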

HeLa cells = assay: Evaluation of in vitro gene expression in HeLa cell (luciferase mRNA-encapsulating LNP); type: cell-based, human; conditions: for cumulative luciferase luminescence intensity over 24 hr: luciferase mRNA 0.4 μg per dish, LNP cationic lipid:DOPC:Chol:DMG-PEG2k=55:5:40:1; for gene expression activity compared to Comparative Example: result in words
How it was run: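 LNP (cationic lipid:DOPC:Chol:DMG-PEG2k=55:5:40:1) carrying luciferase mRNA, 0.4 μg mRNA per 3.5 cm dish, added to HeLa cells in D-MEM with 0.1 mM D-luciferin. Luminescence read 2 min every hour in an incubator luminometer; value is cumulative luminescence over 24 hr.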

BALB/c mouse = assay: Evaluation of in vivo gene expression (luciferase mRNA-encapsulating LNP, IVIS of isolated organs); conditions: for relative value based on Comparative Example (amount of luminescence in spleen): relative to O-Ph-P4C2 LNP = 1.00; for amount of luminescence in each organ: heart / amount of luminescence in each organ: kidney / amount of luminescence in each organ: liver / amount of luminescence in each organ: lung / amount of luminescence in each organ: spleen: 4.5 hr + 15 min after administration; for amount of luminescence in each organ: spleen: spleen (Table 7)
How it was run: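 Luciferase mRNA in LNP (cationic lipid:DOPC:Chol:DMG-PEG2k = 55:5:40:1 molar) given by tail vein to male 5-week-old BALB/c mice at 0.05 mg mRNA/kg. At 4.5 hr, D-luciferin (3 mg/mouse) was given intraperitoneally; 15 min later liver, spleen, kidney, heart and lung were excised and luminescence (photons/sec) quantified by IVIS imaging.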

SMILES	pKa [1]	PdI [2]	particle size [2] [nm]	zeta potential [2] [mV]	cumulative luciferase luminescence intensity over 24 hr (HeLa cells) [RLU]	gene expression activity compared to Comparative Example (HeLa cells)	relative value based on Comparative Example (amount of luminescence in spleen) (BALB/c mouse; spleen)	amount of luminescence in each organ: heart (BALB/c mouse; tail vein, mRNA 0.05 mg/kg) [photons/sec]	amount of luminescence in each organ: kidney (BALB/c mouse; tail vein, mRNA 0.05 mg/kg) [photons/sec]	amount of luminescence in each organ: liver (BALB/c mouse; tail vein, mRNA 0.05 mg/kg) [photons/sec]	amount of luminescence in each organ: lung (BALB/c mouse; tail vein, mRNA 0.05 mg/kg) [photons/sec]	amount of luminescence in each organ: spleen (BALB/c mouse; tail vein, mRNA 0.05 mg/kg) [photons/sec]	amount of luminescence in spleen (BALB/c mouse; tail vein, mRNA 0.05 mg/kg, spleen (Table 8)) [photons/sec]	gene expression activity in the spleen compared to Comparative Example (BALB/c mouse; spleen, result in words)
CCCCCCCCCCCCCCCCC(CCCCCCCCCCCCCCCC)C(=O)Oc1ccc(CC(=O)OCCSSCCOC(=O)NCCN(CC)CC)cc1 [Example 22]	7.5	0.090	96	4.7	2.38E+08	superior gene expression activity	0.29	3.91E+05	4.45E+05	8.31E+06	5.20E+05	3.16E+06		
CCCCCCCC/C=C\CCCCCCCC(=O)Oc1ccc(CC(=O)OCCC2CCN(CCSSCCN3CCC(CCOC(=O)Cc4ccc(OC(=O)CCCCCCC/C=C\CCCCCCCC)cc4)CC3)CC2)cc1 [Comparative Example, O-Ph-P4C2, reference compound]	6.3	0.064	73	−1.5	1.11E+07		1.00						1.08E+07	
CCCCCCCC/C=C\CCCCCCCC(=O)OCC(C)(COC(=O)CCCCCCC/C=C\CCCCCCCC)C(=O)Oc1ccc(CC(=O)OCCSSCCOC(=O)NCCN(CC)CC)cc1 [Example 34]	7.2	0.060	63	0.4	1.08E+08	superior gene expression activity	1.27	6.83E+05	5.04E+05	2.52E+07	6.02E+05	1.37E+07		superior gene expression activity
